What is called EC50 is the concentration that produces a half-maximal response.

We go through 16 compounds from patent publication US20240166693A1, “METHODS AND COMPOUNDS FOR MODULATING MYOTONIC DYSTROPY 1” (Design Therapeutics, Inc., priority 2020, published 2024).

Where two headings read alike, the source gives them in different places.

The subject of this test is Myotonic Dystrophy 1 affected patient fibroblasts (Coriell GM04602; 1600 CTG repeats). As to the kind of experiment: DM1 foci reduction assay (CAG10-Cy3 FISH, average foci per nucleus). It is filed as cell-based. To be noted: Homo sapiens, Fibroblast. The procedure: DM1 foci reduction assay methods: Myotonic Dystrophy 1 affected patient fibroblasts (Coriell GM04602; 1600 CTG repeats) and wild type fibroblasts (Coriell GM07492; control line) were cultured separately in Gibco DMEM (1×)+4.5 g/L D-Glucose+L-Glutamine+110 mg/L Sodium Pyruvate, supplemented with 10% FBS and 1× Pen/Strep. Cells were maintained in incubator at 37° C. and 5% CO2 with media refresh every 48-72 hours.
At 90-95% confluency, both cell lines were harvested using Trypl-E then pelleted at 500×g for 5 minutes and were resuspended in media. DM1 fibroblasts were seeded in Agilent 96 well black plates at a density of 5,000 cells/well in 200 μL media; 8 wells were reserved for control fibroblasts. Plates were returned to incubator for 24 hours at 37° C. and 5% CO2.
Compounds were diluted from 10 mM stock to 1 mM in DMSO, then diluted once more to 6 μM (2× concentration) in media. Media was removed from all plates and cells were replenished with 100 μL media. Cells were treated in 8-point dose response, 1:3 fold dilution, 3 μM top dose via addition of 100 μL of 6 μM (2× concentration) compound to the 100 μL media with cells. Plates were returned to incubator for 48-hour time-course experiment at 37° C. and 5% CO2.
Following treatment, compounds were removed, and plates were washed with PBS, then cells were fixed in 75 μL 4% PFA solution for 20 minutes at room temperature. Plates were washed twice with PBS and twice with cold 70% ethanol before permeabilization with 250 μL cold 70% ethanol for 24-72 hours at −20° C.
After permeabilization, plates were washed once with a 30% formamide and 2×SSC buffer and rehydrated in that buffer for 15 minutes at room temperature. Cells were incubated overnight at 37° C. in 75 μL of a hybridization solution containing 30% formamide, 2×SSC, 25 mg/mL dextran sulfate, 2.5 mg/mL BSA, 0.2 μg/mL Herring sperm DNA, 2 mM vanadyl-ribonucleoside complex, and 5 nM CAG10-Cy3 probe.
Plates were washed once with 30% formamide in 2×SSC buffer, then twice with the buffer for 30 minutes at 37° C., 300 RPM in an incubating plate shaker. Cells were stained with 75 μL of 2.5 μg/mL DAPI in PBS for 5 minutes at room temperature. Plates were then washed twice with PBS and stored in 250 μL PBS. Plates were sealed with adhesive foil and wiped down with 70% ethanol.
Cells were imaged on a Cytation5 with a 20× objective sampling from 4 areas of each well. Nuclei were captured under DAPI channel and foci under RFP channel. Plates were analyzed on an average foci per nucleus per well basis.

Setting [1] is: 48 h, read-out: Foci Reduction in Fibroblast EC50, 48 h (nM).
Setting [2] is: DM1 fibroblasts, 48 h treatment, 8-point dose response, 3 μM top dose, read-out: Foci Reduction in Fibroblast EC50, 48 h.

With `CCN(CC)CCCCC(NC(=O)[C@H](CC(C)C)NC(=O)C(C)NC(=O)[C@H](Cc1ccccc1)NC(=O)c1ccc(C(C)(C)C)cc1)C(=O)N[C@@H](CO)C(=O)NCCCN(C)CCCNC(=O)CCNC(=O)c1nc(NC(=O)c2cc(NC(=O)CCNC(=O)c3nc(NC(=O)CCCNC(=O)c4cc(NC(=O)c5nc(NC(=O)CCNC(=O)c6cc(NC(=O)c7nccn7C)cn6C)cn5C)cn4C)cn3C)cn2C)cn1C` (stereo in doubt) [Compound 71], the EC50 under setting [1] was > 500 nM.

Take `Cn1cc(NC(=O)c2nc(NC(=O)CCNC(=O)c3cc(NC(=O)c4nc(NC(=O)CCNC(=O)c5cccn5C)cn4C)cn3C)cn2C)cc1C(=O)NCCC(=O)Nc1cn(C)c(C(=O)NCCOCCOCCOCCOCCOCCOCCOCCOCCOCCOCCN2CCC(C(=O)Nc3ncc(SCc4ncc(C(C)(C)C)o4)s3)CC2)n1` [Compound 2]: the half-maximal effective concentration (EC50) under setting [2] is < 100 nM.

Consider `CCN(CC)CCCC[C@H](NC(=O)[C@H](CC(C)C)NC(=O)[C@H](C)NC(=O)[C@H](Cc1ccccc1)NC(=O)c1ccc(C(C)(C)C)cc1)C(=O)N[C@@H](CO)C(=O)NCCOCCOCCOCCOCCOCCNC(=O)c1nc(NC(=O)CCNC(=O)c2cc(NC(=O)c3nc(NC(=O)CCNC(=O)c4cc(NC(=O)c5nc(NC(=O)CCNC(=O)c6cccn6C)cn5C)cn4C)cn3C)cn2C)cn1C` [Compound 10], for which the concentration for a half-maximal effect (EC50) under setting [1] was > 500 nM.

Turning to `Cn1cc(NC(=O)c2nc(NC(=O)CCNC(=O)c3cc(NC(=O)c4nccn4C)cn3C)cn2C)cc1C(=O)NCCCC(=O)Nc1cn(C)c(C(=O)NCCC(=O)Nc2cc(C(=O)Nc3cn(C)c(C(=O)NCCC(=O)NCCOCCOCCOCCOCCOCCOCCOCCOCCOCCOCCN4CCC(C(=O)Nc5ncc(SCc6ncc(C(C)(C)C)o6)s5)CC4)n3)n(C)c2)n1` [Compound 17], the EC50 under setting [2] was > 500 nM.

As to `CCN(CC)CCCC[C@H](NC(=O)[C@H](CC(C)C)NC(=O)[C@H](C)NC(=O)[C@H](Cc1ccccc1)NC(=O)c1ccc(C(C)(C)C)cc1)C(=O)N[C@@H](CO)C(=O)NCCOCCOCCOCCOCCOCCNC(=O)CCNC(=O)c1nc(NC(=O)c2cc(NC(=O)CCNC(=O)c3nc(NC(=O)CCCNC(=O)c4cc(NC(=O)c5nc(NC(=O)CCNC(=O)c6cc(NC(=O)c7nccn7C)cn6C)cn5C)cn4C)cn3C)cn2C)cn1C` [Compound 25], the half-maximal effective concentration (EC50) under setting [1] lay in the range of 100 to 500 nM.

With `CCN(CC)CCCC[C@H](NC(=O)[C@H](CC(C)C)NC(=O)[C@H](C)NC(=O)[C@H](Cc1ccccc1)NC(=O)c1ccc(C(C)(C)C)cc1)C(=O)N[C@@H](CO)C(=O)NCCOCCOCCOCCOCCOCCOCCOCCOCCOCCOCCNC(=O)CCNC(=O)c1nc(NC(=O)c2cc(NC(=O)CCNC(=O)c3nc(NC(=O)CCCNC(=O)c4cc(NC(=O)c5nc(NC(=O)CCNC(=O)c6cc(NC(=O)c7nccn7C)cn6C)cn5C)cn4C)cn3C)cn2C)cn1C` [Compound 26], the EC50 under setting [1] is 100 to 500 nM.

Turning to `CCN(CC)CCCC[C@H](NC(=O)[C@H](CC(C)C)NC(=O)[C@H](C)NC(=O)[C@H](Cc1ccccc1)NC(=O)c1ccc(C(C)(C)C)cc1)C(=O)N[C@@H](CO)C(=O)NCCOCCOCCOCCOCCOCCOCCOCCOCCOCCOCCOCCOCCOCCOCCOCCNC(=O)CCNC(=O)c1nc(NC(=O)c2cc(NC(=O)CCNC(=O)c3nc(NC(=O)CCCNC(=O)c4cc(NC(=O)c5nc(NC(=O)CCNC(=O)c6cc(NC(=O)c7nccn7C)cn6C)cn5C)cn4C)cn3C)cn2C)cn1C` [Compound 27], the EC50 under setting [1] is < 100 nM.

Take `CC(C)c1cnn2c(NCc3ccc(OCCOCCOCCOCCOCCOCCOCCOCCOCCOCCOCCNC(=O)CCNC(=O)c4nc(NC(=O)c5cc(NC(=O)CCNC(=O)c6nc(NC(=O)CCCNC(=O)c7cc(NC(=O)c8nc(NC(=O)CCNC(=O)c9cc(NC(=O)c%10nccn%10C)cn9C)cn8C)cn7C)cn6C)cn5C)cn4C)cc3-n3cccn3)nc(OC3CCCNC3)nc12` (stereo not shown) [Compound 53]: under setting [2], the EC50 was > 500 nM.

With `CC(C)c1cnn2c(NCc3ccc(OCCOCCOCCOCCOCCOCCOCCOCCOCCOCCOCCOCCOCCOCCOCCOCCNC(=O)CCNC(=O)c4nc(NC(=O)c5cc(NC(=O)CCNC(=O)c6nc(NC(=O)CCCNC(=O)c7cc(NC(=O)c8nc(NC(=O)CCNC(=O)c9cc(NC(=O)c%10nccn%10C)cn9C)cn8C)cn7C)cn6C)cn5C)cn4C)cc3-n3cccn3)nc(OC3CCCNC3)nc12` (stereo not shown) [Compound 54], under setting [2], the EC50 is > 500 nM.

Consider `CCN(CC)CCCC[C@H](NC(=O)[C@H](CC(C)C)NC(=O)[C@H](C)NC(=O)[C@H](Cc1ccccc1)NC(=O)c1ccc(C(C)(C)C)cc1)C(=O)N[C@@H](CO)C(=O)NCCOCCOCCOCCOCCOCCNC(=O)c1cc(NC(=O)c2cc(NC(=O)c3nc(NC(=O)c4cc(NC(=O)[C@@H](N)CCNC(=O)c5nc(NC(=O)c6cc(NC(=O)c7cc(NC(=O)c8nccn8C)cn7C)cn6C)cn5C)cn4C)cn3C)cn2C)cn1C` [Compound 55], for which, under setting [1], the EC50 is > 500 nM.

`CCN(CC)CCCC[C@H](NC(=O)[C@H](CC(C)C)NC(=O)[C@H](C)NC(=O)[C@H](Cc1ccccc1)NC(=O)c1ccc(C(C)(C)C)cc1)C(=O)N[C@@H](CO)C(=O)NCCOCCOCCOCCOCCOCCNC(=O)c1cc(NC(=O)c2cc(NC(=O)c3nc(NC(=O)c4cc(NC(=O)[C@@H](N)CCNC(=O)c5nc(NC(=O)CCNC(=O)c6cc(NC(=O)c7nccn7C)cn6C)cn5C)cn4C)cn3C)cn2C)cn1C` [Compound 56]: the half-maximal effective concentration (EC50) under setting [1] was > 500 nM.

As for `CCN(CC)CCCC[C@H](NC(=O)[C@H](CC(C)C)NC(=O)[C@H](C)NC(=O)[C@H](Cc1ccccc1)NC(=O)c1ccc(C(C)(C)C)cc1)C(=O)N[C@@H](CO)C(=O)NCCOCCOCCOCCOCCOCCNC(=O)c1cc(NC(=O)c2nc(NC(=O)c3cc(NC(=O)[C@@H](N)CCNC(=O)c4nc(NC(=O)c5cc(NC(=O)c6cc(NC(=O)c7nccn7C)cn6C)cn5C)cn4C)cn3C)cn2C)cn1C` [Compound 57], the EC50 under setting [1] is > 500 nM.

As to `CC(C)C[C@H](NC(=O)[C@H](C)NC(=O)[C@H](Cc1ccccc1)NC(=O)c1ccc(C(C)(C)C)cc1)C(=O)N[C@@H](CCCCN(C)C1CC2CCC1C2)C(=O)N[C@@H](CO)C(=O)NCCOCCOCCOCCOCCOCCNC(=O)c1cc(NC(=O)c2cc(NC(=O)c3nc(NC(=O)c4cc(NC(=O)[C@@H](N)CCNC(=O)c5nc(NC(=O)c6cc(NC(=O)c7cc(NC(=O)c8nccn8C)cn7C)cn6C)cn5C)cn4C)cn3C)cn2C)cn1C` (stereo partly shown) [Compound 58], the concentration giving a half-maximal response (EC50) under setting [1] was > 500 nM.

For the compound `CC(C)C[C@H](NC(=O)[C@H](C)NC(=O)[C@H](Cc1ccccc1)NC(=O)c1ccc(C(C)(C)C)cc1)C(=O)N[C@@H](CCCCN(C)C1CC2CCC1C2)C(=O)N[C@@H](CO)C(=O)NCCOCCOCCOCCOCCOCCNC(=O)CCNC(=O)c1nc(NC(=O)c2cc(NC(=O)CCNC(=O)c3nc(NC(=O)CCCNC(=O)c4cc(NC(=O)c5nc(NC(=O)CCNC(=O)c6cc(NC(=O)c7nccn7C)cn6C)cn5C)cn4C)cn3C)cn2C)cn1C` (stereo partly shown) [Compound 59], under setting [1], the EC50 fell in the range of 100 to 500 nM.

On to `Cn1cc(NC(=O)c2nc(NC(=O)CCNC(=O)c3cc(NC(=O)c4nccn4C)cn3C)cn2C)cc1C(=O)NCCCC(=O)Nc1cn(C)c(C(=O)NCCC(=O)Nc2cc(C(=O)Nc3cn(C)c(C(=O)NCCC(=O)NCCOCCOCCOCCOCCOCCNC(=O)c4ccc(-c5cnc(NCc6ccco6)n6cnnc56)cc4)n3)n(C)c2)n1` [Compound 60], for which, under setting [2], the 50% effective concentration (EC50) was 100 to 500 nM.

In the case of `Cc1nc(CCC(=O)NCCOCCOCCOCCOCCOCCNC(=O)CCNC(=O)c2nc(NC(=O)c3cc(NC(=O)CCNC(=O)c4nc(NC(=O)CCCNC(=O)c5cc(NC(=O)c6nc(NC(=O)CCNC(=O)c7cc(NC(=O)c8nccn8C)cn7C)cn6C)cn5C)cn4C)cn3C)cn2C)ccc1-c1cnc(NCc2c(F)ccc3c2CCO3)n2cnnc12` [Compound 62], the concentration giving a half-maximal response (EC50) under setting [2] was > 500 nM.
